In patent publication US12583818B2 (DAEGU-GYEONGBUK MEDICAL INNOVATION FOUNDATION, priority 2020, dated 2026):
pIC50: −log10 of the molar value. Read-outs that look alike come from different tables or passages of the source.

Tests used:
[1] = tested on: A2780-SP cells (ovarian cancer stem cells); experiment: Sphere cell viability of A2780-SP cells (Cell-titer Glo); assay type: cell-based
Method: (§1) In order to confirm the inhibitory effect of the compound represented by formula 1 according to the present invention on the growth of MCF7, MCF7-SP, A2780 or A2780-SP cells, the following experiment was performed, and the results are shown in Tables 4 and 5 below.
On the other hand, A2780-SP cells (ovarian cancer stem cells) were plated in an Ultra-Low Attachment round bottom 96-well plate (corning) at the density of 1,500 viable cells per well, and cultured in cancer stem cell medium. The cancer stem cell medium is composed of the neurobasal medium supplemented with 20 ng/ml of bFGF, 10 ng/ml of EGF, […] of amphotericin B, HEPES, Glutamax and B27.
On the next day of culture, the cells were treated with the compound of Examples 57, and 69 to 144, followed by culture for 8 days. The medium containing the compound was added thereto once again on the 4th day. Sphere cell viability was evaluated by Cell-titer Glo (Promega, WC, USA), and luciferase activity was detected using a Tecan plate reader (Biocompare, USA).

Pin1 = target: T1, Pin1 (Homo sapiens, UniProt Q13526); experiment: Evaluation of Pin1 enzyme inhibitory activity (Sensolyte Green Pin1 assay kit); assay type: biochemical
T1 construct: purchased Anaspec
In short: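 Pin1 activity was measured with a fluorogenic kit assay (Sensolyte Green) using substrate prepared at 1 μM and protein at 50 μg/ml, both pre-mix concentrations. Compound working solutions were 100, 10, 1 or 0.1 μM, and reactions ran 2 h at room temperature in the dark, read at 490/520 nm. Inhibition was graded A–D by concentration.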

[2] = tested on: A2780 cells (ovarian cancer cells); experiment: Cell viability of A2780 cells (Cell-titer Glo); assay type: cell-based; settings: Homo sapiens
Method: as §1
In addition, A2780 cells (ovarian cancer cells) were plated in a 96-well plate at the density of 3000 viable cells per well, and cultured in RPMI-1640 medium supplemented with 10% FBS and 1% penicillin/streptomycin.
On the next day of culture, the cells were treated with the compound of Examples 57, and 69 to 144, followed by culture for 3 days. Cell viability was evaluated by Cell-titer Glo (Promega, WC, USA), and luciferase activity was detected using a Tecan plate reader (Biocompare, USA).

[3] = 192 h, sphere cell viability, culture for 8 days, read-out: A2780-SP
[4] = Table 5, read-out: the concentration (second list of b710, cell line not named; matches A2780-SP column)
[5] = concentration at which the Pin1 enzyme activity is inhibited, 2 hours at room temperature, fluorescence 490 nm/520 nm, read-out: Pin 1 inhibition
[6] = 72 h, cell viability, culture for 3 days, read-out: A2780
[7] = Table 2, read-out: concentration at which Pin1 inhibitory activity was exhibited
[8] = A2780, Table 5, read-out: A2780 cell concentration

T1 sequence (Q13526 whole entry): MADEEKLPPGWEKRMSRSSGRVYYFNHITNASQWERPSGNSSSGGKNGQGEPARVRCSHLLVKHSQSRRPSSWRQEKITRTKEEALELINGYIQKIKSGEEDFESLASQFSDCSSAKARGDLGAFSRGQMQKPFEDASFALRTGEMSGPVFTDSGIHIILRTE

| pIC50 [1, 3] | pIC50 [1, 4] | pIC50 (Pin1; [5]) | pIC50 [2, 6] | pIC50 (Pin1; [7]) | pIC50 [2, 8] | SMILES |
| --- | --- | --- | --- | --- | --- | --- |
| > 6.00 | > 6.00 | 5.00 to 6.00 | < 5.00 | – | – | Cc1[nH]c2ccc(Cl)cc2c1CCCNS(=O)(=O)c1ccc(OCCCN2CCNCC2)cc1 [Example 157, N-(3-(5-chloro-2-methyl-1H-indol-3-yl)propyl)-4-(3-(piperazin-1-yl)propoxy)benzenesulfonamide] |
| > 6.00 | > 6.00 | > 6.00 | 5.00 to 6.00 | > 6.00 | > 5.00 | O=S(=O)(NCCCc1c[nH]c2c(Cl)cc(Cl)cc12)c1ccc(OCCCN2CCNCC2)cc1 [Example 164, N-(3-(5,7-dichloro-1H-indol-3-yl)propyl)-4-(3-(piperazin-1-yl)propoxy)benzenesulfonamide] |
| > 6.00 | > 6.00 | > 6.00 | < 5.00 | > 6.00 | – | CN1CCN(CCCOc2ccc(S(=O)(=O)NCC3CCc4[nH]c5ccccc5c4C3)cc2)CC1 (centres unmarked) [Example 189, 4-(3-(4-methylpiperazin-1-yl)propoxy)-N-((2,3,4,9-tetrahydro-1H-carbazol-3-yl)methyl)benzenesulfonamide] |
| > 6.00 | > 6.00 | > 6.00 | 5.00 to 6.00 | > 6.00 | > 5.00 | CN1CCN(CCCOc2ccc(S(=O)(=O)NCCCc3c[nH]c4ncc(Cl)cc34)cc2)CC1 [Example 169, N-(3-(5-chloro-1H-pyrrolo[2,3-b]pyridin-3-yl)propyl)-4-(3-(4-methylpiperazin-1-yl)propoxy)benzenesulfonamide] |
| < 5.00 | – | > 6.00 | < 5.00 | > 6.00 | – | CS(=O)(=O)CCCOc1ccc(S(=O)(=O)NCCCc2c[nH]c3ccc(Cl)cc23)cc1 [Example 145, N-(3-(5-chloro-1H-indol-3-yl)propyl)-4-(3-(methylsulfonyl)propoxy)benzenesulfonamide] |
| 5.00 to 6.00 | – | > 6.00 | < 5.00 | > 6.00 | – | O=S(=O)(NCCCc1c[nH]c2ccc(Cl)cc12)c1cnc(NCCCN2CCNCC2)s1 [Example 146, N-(3-(5-chloro-1H-indole-3-yl)propyl)-2-((3-(piperazine-1-yl)propyl)amino)thiazole-5-sulfonamide] |
| > 6.00 | > 6.00 | > 6.00 | 5.00 to 6.00 | > 6.00 | > 5.00 | CN1CCN(CCCOc2ccc(S(=O)(=O)NCCCc3n[nH]c4ccc(Cl)cc34)cc2)CC1 [Example 167, N-(3-(5-chloro-1H-indazole-3-yl)propyl)-4-(3-(4-methylpiperazine-1-yl)propoxy)benzenesulfonamide] |
| > 6.00 | > 6.00 | > 6.00 | < 5.00 | > 6.00 | – | O=S(=O)(NCC1CCc2[nH]c3ccccc3c2C1)c1ccc(OCCCN2CCNCC2)cc1 (centres unmarked) [Example 190, 4-(3-(piperazin-1-yl)propoxy)-N-((2,3,4,9-tetrahydro-1H-carbazol-3-yl)methyl)benzenesulfonamide] |
| > 6.00 | > 6.00 | > 6.00 | 5.00 to 6.00 | > 6.00 | > 5.00 | Cc1ncn(CCCOc2ccc(S(=O)(=O)NCCCc3c[nH]c4ccc(Cl)cc34)cc2)c1C [Example 175, N-(3-(5-chloro-1H-indol-3-yl)propyl)-4-(3-(4,5-dimethyl-1H-imidazol-1-yl)propoxy)benzenesulfonamide] |
| > 6.00 | > 6.00 | > 6.00 | 5.00 to 6.00 | > 6.00 | > 5.00 | CN1CCN(CCCOc2ccc(S(=O)(=O)NCCCc3c[nH]c4c(Cl)cc(Cl)cc34)cc2)CC1 [Example 165, N-(3-(5,7-dichloro-1H-indol-3-yl)propyl)-4-(3-(4-methylpiperazin-1-yl)propoxy)benzenesulfonamide] |
| > 6.00 | > 6.00 | > 6.00 | < 5.00 | > 6.00 | – | CN1CCN(CCCOc2ccc(S(=O)(=O)NCCCc3c[nH]c4cc(Cl)c(Cl)cc34)cc2)CC1 [Example 184, N-(3-(5,6-dichloro-1H-indol-3-yl)propyl)-4-(3-(4-methylpiperazin-1-yl)propoxy)benzenesulfonamide] |
| > 6.00 | > 6.00 | > 6.00 | 5.00 to 6.00 | > 6.00 | > 5.00 | CN1CCN(C[C@H](O)COc2ccc(S(=O)(=O)NCCCc3c[nH]c4ccc(Cl)cc34)cc2)CC1 [Example 173, (S)—N-(3-(5-chloro-1H-indol-3-yl)propyl)-4-(2-hydroxy-3-(4-methylpiperazin-1-yl)propoxy)benzenesulfonamide] |

Continued, compound first:

| SMILES | pIC50 [1, 3] | pIC50 [1, 4] | pIC50 (Pin1; [5]) | pIC50 [2, 6] | pIC50 (Pin1; [7]) | pIC50 [2, 8] |
| --- | --- | --- | --- | --- | --- | --- |
| O=S(=O)(NCCCc1c[nH]c2ccc(Cl)cc12)c1ccc(OCCCN2CCCC2)cc1 [Example 100, N-(3-(5-chloro-1H-indol-3-yl)propyl)-4-(3-(pyrrolidin-1-yl)propoxy)benzenesulfonamide] | > 6.00 | > 6.00 | > 6.00 | 5.00 to 6.00 | > 6.00 | > 5.00 |
| CN1CCC(CCCCc2ccc(S(=O)(=O)NCCCc3c[nH]c4ccc(Cl)cc34)cc2)CC1 [Example 115, N-(3-(5-chloro-1H-indol-3-yl)propyl)-4-(4-(1-methylpiperidin-4-yl)butyl)benzenesulfonamide] | > 6.00 | > 6.00 | > 6.00 | – | > 6.00 | – |
| CN1CCN(c2cc(Nc3ccc(S(=O)(=O)NCCCc4c[nH]c5ccc(Cl)cc45)cc3)nc(N3CCN(C)CC3)c2)CC1 [Example 141, 4-((4,6-bis(4-methylpiperazin-1-yl)pyridin-2-yl)amino)-N-(3-(5-chloro-1H-indol-3-yl)propyl)benzenesulfonamide] | 5.00 to 6.00 | – | > 6.00 | – | > 6.00 | – |
| O=S(=O)(NCCCc1c[nH]c2ccc(Cl)cc12)c1ccc(NCCCN2CCNCC2)cc1 [Example 113, N-(3-(5-chloro-1H-indole-3-yl)propyl)-4-((3-(piperazine-1-yl)propyl)amino)benzenesulfonamide] | 5.00 to 6.00 | – | > 6.00 | – | > 6.00 | – |
| CN1CCN(c2cc(Br)cc(Oc3ccc(S(=O)(=O)NCCCc4c[nH]c5ccc(Cl)cc45)cc3)c2)CC1 [Example 138, N-(3-(5-chloro-1H-indole-3-yl)propyl)-4-(3-bromo-5-(4-methylpiperazine-1-yl)phenoxy)benzenesulfonamide] | 5.00 to 6.00 | – | > 6.00 | < 5.00 | > 6.00 | – |
| O=S(=O)(NCCCc1c[nH]c2ccc(Cl)cc12)c1ccc(Nc2cc(N3CCNCC3)ccn2)cc1 [Example 134, N-(3-(5-chloro-1H-indol-3-yl)propyl)-4-((4-(piperazin-1-yl)pyridin-2-yl)amino)benzenesulfonamide] | > 6.00 | > 6.00 | > 6.00 | < 5.00 | > 6.00 | – |
| O=S(=O)(NCCCc1c[nH]c2ccc(Cl)cc12)c1ccc(NCCCN2CCCCC2)cc1 [Example 114, N-(3-(5-chloro-1H-indol-3-yl)propyl)-4-((3-(piperidin-1-yl)propyl)amino)benzenesulfonamide] | 5.00 to 6.00 | – | > 6.00 | – | > 6.00 | – |
| CN1CCN(CCCOc2ccc(C(=O)NCCCc3c[nH]c4ccc(Cl)cc34)cc2)CC1 [Example 143, N-(3-(5-chloro-1H-indole-3-yl)propyl)-4-(3-(4-methylpiperazine-1-yl)propoxy)benzamide] | 5.00 to 6.00 | – | > 6.00 | – | > 6.00 | – |
| CN1CCN(c2cc(Cl)nc(Nc3ccc(S(=O)(=O)NCCCc4c[nH]c5ccc(Cl)cc45)cc3)c2)CC1 [Example 140, N-(3-(5-chloro-1H-indol-3-yl)propyl)-4-((6-chloro-4-(4-methylpiperazin-1-yl)pyridin-2-yl)amino)benzenesulfonamide] | 5.00 to 6.00 | – | > 6.00 | – | > 6.00 | – |
| O=S(=O)(NCCCc1c[nH]c2ccc(Cl)cc12)c1ccc(OCC2(CN3CCNCC3)CC2)cc1 [Example 117, N-(3-(5-chloro-1H-indol-3-yl)propyl)-4-((1-(piperazin-1-ylmethyl)cyclopropyl)methoxy)benzenesulfonamide] | 5.00 to 6.00 | – | > 6.00 | – | > 6.00 | – |
| O=S(=O)(NCCCc1c[nH]c2ccc(Cl)cc12)c1ccc(Nc2cccc(N3CCC(O)CC3)c2)cc1 [Example 139, N-(3-(5-chloro-1H-indol-3-yl)propyl)-4-((3-(4-hydroxypiperidin-1-yl)phenyl)amino)benzenesulfonamide] | – | – | 5.00 to 6.00 | – | – | – |
